Test results reported in patent US12516099B2, “Processes for generating engineered cells and compositions thereof” (Juno Therapeutics, Inc., priority 2018, dated 2026).

Key:
mTOR = target: T1, mTOR (Homo sapiens, UniProt P42345); assay: Intracellular S6 phosphorylation in engineered T cells produced with mTOR kinase inhibitor; type: cell-based; conditions: 1 μM Compound 63 during process; CD8+ memory subsets
T1 construct: endogenous in cells; host or cells: primary human CD4+ and CD8+ T cells transduced with an anti-CD19 CAR
Method: (§1) CD4+ and CD8+ T cells were isolated by immunoaffinity-based enrichment from leukapheresis samples from human donor subjects. At day 1, isolated CD4+ and CD8+ T cells were mixed 1:1 and stimulated with an anti-CD3/anti-CD28 oligomeric stimulatory reagent generated as described in Example 2 in serum-free media supplemented with recombinant IL-2 (100 IU/mL), recombinant IL-7 (600 IU/mL), and recombinant IL-15 (100 IU/mL) with or without 1 μM of 2-(3-hydroxyphenyl)-9-(2-isopropylphenyl)-8-oxo-8,9-dihydro-7H-purine-6-carboxamide (Compound 63). The T cells cultured with our without Compound 63 were incubated overnight (approximately 24 hr) at 37° C., and were then transduced in serum-free culture media with our without Compound 63 ([…]) with a lentiviral vector encoding an anti-CD19 CAR. […]
(§2) The cryofrozen engineered CD4+ and CD8+ T cells were thawed, and T cells were assessed for intracellular S6 phosphorylation, a ribosomal protein and marker of mTOR inhibition, and co-stained for surface expression of CD4 or CD8 and for CCR7 and CD45RA as markers of memory subsets. pS6 expression in live CD8+ T cells by memory subsets was shown by the expression of CCR7 and CD45RA as shown in FIG. 30A.

CD4+ and CD8+ T cells [1] = assay: Percent viable and total live cells of T cell composition produced with Compound 63; type: cell-based, human; conditions: 1 μM Compound 63 during process
Method: as §1, §2

CAR-T cells = assay: Apoptosis marker (intracellular caspase) in thawed CAR-T cells; type: cell-based, human; conditions: vs cells not incubated with compound 63
Method: (§3) Thawed cells generated by the process described were assessed for a marker of apoptosis (e.g., percentage of caspase positive CAR-T cells), phenotypic profile, and ability to produce intracellular cytokines following stimulation with PMA/Ionomycin and a Golgi Inhibitor. […] Thawed cells also were stained for surface expression of CD27 and CCR7 by flow cytometry.

CD27 and CCR7 = assay: Surface CD27 and CCR7 phenotype of T cells produced with Compound 63; type: cell-based, human; conditions: CD8+ and CD4+ T cells
Method: as §3

CD4+ and CD8+ T cells [2] = assay: Intracellular cytokines after PMA/Ionomycin and Golgi inhibitor; type: cell-based, human
Method: as §3

[3] = tested on: anti-idiotype (ID) antibody against the anti-CD19 CAR; assay: Long-term 12 day stimulation with anti-idiotype antibody beads; type: cell-based, human; conditions: 12 days anti-ID beads
Description: To further assess the functional activity of the cells, the generated T cell compositions were stimulated long-term over 12 days with beads conjugated with an anti-idiotype (ID) antibody against the anti-CD19 CAR, and expansion and survival of the cells were monitored (FIG. 31F, left panel) and total expansion metric calculated by area under the curve (FIG. 31F, right panel).

CC(C)c1ccccc1-n1c(=O)[nH]c2c(C(N)=O)nc(-c3cccc(O)c3)nc21 [Compound 63, 2-(3-hydroxyphenyl)-9-(2-isopropylphenyl)-8-oxo-8,9-dihydro-7H-purine-6-carboxamide]
pS6 mean fluorescence intensity (marker of mTOR inhibition) (mTOR): decreased the mean fluorescence intensity of stimulated memory T cell subsets
percent viable cells or total live cells (CD4+ and CD8+ T cells [1]): did not impact the percent viable cells or the total live cells
intracellular caspase expression (CAR-T cells): less intracellular caspase expression
phenotypic subset profile by CD27 and/or CCR7 (CD27 and CCR7): did not substantially alter the phenotypic subset profile of the cells
level of intracellular cytokines IL2, IFNg, or TNF (CD4+ and CD8+ T cells [2]): substantially improved
expansion and survival after long-term CAR-specific stimulation [3]: improved function of the T cells was observed following long-term CAR-specific stimulation
